Columns and labels:
Type in all cases: cell-based
[1] = test system: IL-6 release from mononuclear cells; experiment: Test 4: cytokine release from LPS-stimulated mononuclear cells, IL-6; details: Homo sapiens, 5 hours incubation, read-out: Test 4 residual activity (IL-6 release), percent of control
Procedure: Test 4. Stimulation of the cytokine release
Isolation of mononuclear cells from human blood
10 ml of human blood, stabilized with 1 ml of 3.8% sodium citrate solution, were diluted with 10 ml of PM16 (Serva, Heidelberg) and underlaid with 15 ml of Lymphoprep (Dr. Molter GmbH, Heidelberg). The samples were centrifuged, at room temperature for 40 minutes, at 400×g (1600 rpm, Minifuge 2, Heraeus, Osterode). The mononuclear cells are visible as a white ring at the Lymphoprep/plasma interface. This ring was carefully removed with a syringe, diluted with an equal volume of PM16, and centrifuged for 10 minutes at 400×g. […] After the cells had been resuspended in approximately 1 ml of RPMI1640 (+300 mg/l L-glutamine+25 mM HEPES+100 μg/ml streptomycin+100 μg/ml penicillin), the cell density was determined using a Coulter Counter JT (Coulter Diagnostics) and adjusted to 5*10^6 /ml. […]
230 μl of mononuclear cells were incubated, at 37° C.; 5% CO2 for 20-22 hours (5 hours in the case of IL-6), with 10 μl of test substance (10 μM in DMSO/water, 1/10) and 10 μl of lipopolysaccharide (LPS; 500 μg dissolved in 1 ml of DMSO and diluted 1/10 with water prior to beginning the test; from Salmonella abortus equi, Sigma, Deisenhofen). […] Aliquots of the supernatant are measured with an ELISA (Biermann, Bad Nauheim). […]

[2] = test system: leukotriene B4 synthesis in white blood cells; experiment: Test 3: LTB4 formation by white blood cells; details: Homo sapiens, read-out: Test 3 residual activity (LTB4 formation), percent of control
Procedure, shortened: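 Human blood leukocytes (dextran sedimentation, 10^7 cells/ml) preincubated 15 min at 37 °C with compound plus CaCl2/MgCl2, then stimulated with A23187/glutathione for 5 min at 37 °C. LTB4 in supernatant quantified by reversed-phase HPLC with UV at 280 nm; residual activity given as percent of control at stated μM concentration.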

[3] = test system: polymorphonuclear leucocytes (PMNL); experiment: Test 1: Release of proteolytic activity from human PMNL; details: Homo sapiens, PMNL, read-out: Test 1 residual activity (release of proteolytic activity), percent of control
Procedure, shortened: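 Human peripheral-blood PMNL (5·10^6 cells/ml in PBS with 7.5 mM glucose) preincubated 20 min at 37° C. with compound, then primed with cytochalasin B (5 μg/ml) and TNF (30 ng/ml), and stimulated with fMLP (10 nmol/l) for 60 min. Released protease in supernatant read with methoxysuccinyl-nitroanilide substrate at 405 nm over 0-60 min, pH 7.5.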

With CC(C)(C)c1cc(C2=NOC(c3ccccn3)C2)cc(C(C)(C)C)c1O (stereo not shown) [Example 9] the activity at 10 µM ([1]; 10 μM) was 93%, the activity at 1 µM [2] was 59% and the activity at 10 µM [2] was 0%. The activity at 100 µM [3] was 64%.
For CC(O)c1cc(-c2cc(C(C)(C)C)c(O)c(C(C)(C)C)c2)no1 (stereo not shown) [Example 28], the activity at 1 µM [2] was 14%, the activity at 10 µM [2] was 0% and the activity at 1 µM [3] was 97%. The activity at 10 µM [3] was 59%.
For CCOC(=O)CNC(=O)OCCCc1cc(-c2cc(C(C)(C)C)c(O)c(C(C)(C)C)c2)no1 [Example 41, N-(3-(4-Hydroxy-3,5-di-tert-butylphenyl)isoxazol-5-ylpropoxycarbonyl)glycine ethyl ester], the activity at 10 µM [2] was 13% and the activity at 100 µM [3] was 78%.
CC(C)(C)c1cc(-c2cc(CNS(=O)(=O)C(F)(F)F)on2)cc(C(C)(C)C)c1O [Example 49, N-(3-(4-Hydroxy-3,5-di-tert-butylphenyl)isoxazol-5-ylmethyl)trifluoromethanesulfonamide] showed an activity at 1 µM ([1]; 1 μM) of 91%, an activity at 1 µM [2] of 90% and an activity at 10 µM [2] of 0%. It also gave an activity at 1 µM [3] of 88%, an activity at 10 µM [3] of 23% and an activity at 100 µM [3] of 19%.
With CC(C)(C)c1cc(C2CC(CCC(=O)O)=NO2)cc(C(C)(C)C)c1O (stereo not shown) [Example 63, 5-(4-Hydroxy-3,5-di-tert-butylphenyl)-2-isoxazolin-3-ylpropionic acid] the activity at 10 µM [2] was 91%, the activity at 10 µM [3] was 88% and the activity at 100 µM [3] was 66%.
